Laboratory results published in patent US12281057B2 (VERTEX PHARMACEUTICALS INCORPORATED, priority 2017, dated 2025).

The molecules below were run against truncated form of human NaV 1.8 with full channel activity (Homo sapiens, UniProt Q9Y5Y9) (assay: E-VIPR Assay Method B for detecting and measuring Nav inhibition (HEK cells, membrane potential FRET dyes, electrical stimulation)). Details: HEK cells expressing human NaV 1.8, Table 20B, read-out: Nav 1.8 MedChem Optical Assay EVIPR Assay Method B HS IC50.
Type: cell-based
Description: [formula] where X is the ratio response of the test compound. […] E-VIPR Assay Method B for Detecting and Measuring Nav Inhibition Properties Sodium ion channels are voltage-dependent proteins that can be activated by inducing membrane voltage changes by applying electric fields. The electrical stimulation instrument and methods of use, referred to as E-VIPR, are described in International Publication No. WO 2002/008748 A3 and C.-J. Huang et al. Characterization of voltage-gated sodium channel blockers by electrical stimulation and fluorescence detection of membrane potential, 24 Nature Biotech. 439-46 (2006), both of which are incorporated by reference in their entirety. The instrument comprises a microtiter plate handler, an optical system for exciting the coumarin dye while simultaneously recording the coumarin and oxonol emissions, a waveform generator, a current- or voltage-controlled amplifier, and parallel electrode pairs that are inserted into assay plate wells. Under integrated computer control, this instrument passes user-programmed electrical stimulus protocols to cells within the wells of the microtiter plate. […] Sigma #F4135), 1% NEAA (Non-Essential Amino Acids, Life Tech #11140), 1% HEPES (Life Tech #15630), 1% Pen-Strep (Penicillin-Streptomycin; […] Cells were expanded in vented cap flasks, with 95% humidity and 5% CO2. Reagents and Stock Solutions: • 100 mg/mL Pluronic F-127 (Sigma #P2443), in dry DMSO • Compound Plates: […] 5% KIR 2.1 Bacmam virus (produced in-house), prepared as described in Section 3.3 of J. A. Fornwald et al., Gene Expression in Mammalian Cells Using BacMam, a Modified Baculovirus System, 1350 Methods in Molecular Biology 95-116 (2016), the entire contents of which are incorporated by reference. • 5 mM DiSBAC6(3) (a voltage sensitive oxonol acceptor) (Aurora #00-100-010) in dry DMSO • 5 mM CC2-DMPE (a membrane-bound coumarin phospholipid FRET donor) (Aurora #00-100-008) in dry DMSO • 89 mM VABSC-1 in H2O. […] The solution was made by adding 10% Pluronic F127 stock equal to combined volumes of CC2-DMPE and DiSBAC6(3). The order of preparation was first mix Pluronic and CC2-DMPE, then add DiSBAC6(3), then while vortexing add Bath1/β-Cyclodextrin. […] Assay Protocol: […] Final DMSO concentration for all wells in the assay was 0.625% (0.75% DMSO was supplemented to the Compound Loading Buffer for a final DMSO concentration of 0.625%). 2) Hexyl Dye Solution was prepared. 3) Cell plates were prepared. On the day of the assay, the media was aspirated, and the cells were washed three times with 80 μL of Bath-1 buffer, maintaining 25 μL residual volume in each well. 4) 25 μL per well of Hexyl Dye Solution was dispensed into the cell plates. The cells were incubated for 20 minutes at room temp or ambient conditions in darkness. 5) 80 μL per well of Compound Loading Buffer was dispensed into compound plates. […] The mixture was incubated for 30 minutes at room temp/ambient conditions. […] A pre-stimulus recording was performed for 0.5 seconds to obtain the un-stimulated intensities baseline. The stimulatory waveform was followed by 0.5 seconds of post-stimulation recording to examine the relaxation to the resting state. Data Analysis: Data were analyzed and reported as normalized ratios of emission intensities measured in the 460 nm and 580 nm channels. The response as a function of time was reported as the ratios obtained using the following formula: [formula] The data were further reduced by calculating the initial (Ri) and final (Rf) ratios. These were the average ratio values during part or all of the pre-stimulation period and during sample points during the stimulation period. The fluorescence ratio (Rf/Ri) was then calculated and reported as a function of time. Control responses were obtained by performing assays in the presence of the positive control, and in the absence of pharmacological agents (DMSO vehicle negative control). Responses to the negative (N) and positive (P) controls were calculated as above. […]

truncated form of human NaV 1.8 with full channel activity, sequence (Q9Y5Y9 126-1722 limits assumed): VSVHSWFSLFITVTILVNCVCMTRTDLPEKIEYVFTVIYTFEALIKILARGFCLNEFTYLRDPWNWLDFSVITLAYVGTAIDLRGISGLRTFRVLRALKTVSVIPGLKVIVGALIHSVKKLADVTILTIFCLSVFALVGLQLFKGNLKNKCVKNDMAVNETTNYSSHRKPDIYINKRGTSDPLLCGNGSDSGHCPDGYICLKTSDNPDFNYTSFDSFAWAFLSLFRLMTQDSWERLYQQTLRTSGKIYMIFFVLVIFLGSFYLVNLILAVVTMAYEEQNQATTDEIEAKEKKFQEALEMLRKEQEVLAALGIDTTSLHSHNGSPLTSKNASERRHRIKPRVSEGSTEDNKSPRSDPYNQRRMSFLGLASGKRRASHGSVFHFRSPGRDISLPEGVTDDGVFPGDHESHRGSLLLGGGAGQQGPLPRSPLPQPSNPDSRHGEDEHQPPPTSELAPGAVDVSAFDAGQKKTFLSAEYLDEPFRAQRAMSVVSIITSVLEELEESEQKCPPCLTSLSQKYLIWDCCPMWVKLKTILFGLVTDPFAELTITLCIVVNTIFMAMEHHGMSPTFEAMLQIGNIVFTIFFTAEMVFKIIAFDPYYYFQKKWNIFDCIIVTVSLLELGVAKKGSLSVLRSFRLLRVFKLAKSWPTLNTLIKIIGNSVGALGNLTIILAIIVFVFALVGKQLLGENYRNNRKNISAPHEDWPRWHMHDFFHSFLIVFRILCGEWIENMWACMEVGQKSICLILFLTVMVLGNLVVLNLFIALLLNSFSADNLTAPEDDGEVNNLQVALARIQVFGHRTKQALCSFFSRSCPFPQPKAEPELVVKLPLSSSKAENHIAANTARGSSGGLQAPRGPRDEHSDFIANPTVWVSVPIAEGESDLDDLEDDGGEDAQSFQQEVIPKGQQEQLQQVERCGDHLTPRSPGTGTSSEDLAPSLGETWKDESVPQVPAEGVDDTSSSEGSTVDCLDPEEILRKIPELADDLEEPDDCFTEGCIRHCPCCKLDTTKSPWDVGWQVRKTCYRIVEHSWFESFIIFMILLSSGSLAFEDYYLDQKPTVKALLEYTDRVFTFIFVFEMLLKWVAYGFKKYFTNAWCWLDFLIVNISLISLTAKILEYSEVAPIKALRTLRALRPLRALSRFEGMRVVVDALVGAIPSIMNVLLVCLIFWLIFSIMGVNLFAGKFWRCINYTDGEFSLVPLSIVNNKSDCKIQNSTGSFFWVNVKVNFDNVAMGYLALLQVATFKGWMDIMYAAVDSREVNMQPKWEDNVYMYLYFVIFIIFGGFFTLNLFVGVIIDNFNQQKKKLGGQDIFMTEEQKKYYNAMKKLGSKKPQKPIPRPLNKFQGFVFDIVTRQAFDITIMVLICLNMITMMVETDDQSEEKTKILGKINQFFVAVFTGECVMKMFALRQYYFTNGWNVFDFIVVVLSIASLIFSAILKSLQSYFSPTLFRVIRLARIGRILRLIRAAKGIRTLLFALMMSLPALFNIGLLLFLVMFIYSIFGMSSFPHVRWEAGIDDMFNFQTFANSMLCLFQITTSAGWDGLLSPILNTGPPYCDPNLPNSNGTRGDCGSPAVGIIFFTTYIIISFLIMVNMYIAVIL

Row | SMILES | IC50 [nM]
1 | COc1ccc(Oc2ccc(C(F)(F)F)cc2C(=O)Nc2cccc(C(N)=O)c2)c(OC)c1 [Compound 281, N-(3-carbamoylphenyl)-2-(2,4-dimethoxyphenoxy)-5-(trifluoromethyl)benzamide] | 39
2 | CC(C)Oc1ccccc1Oc1ccc(C(F)(F)F)cc1C(=O)Nc1cccc(C(N)=O)c1 [Compound 282, N-(3-carbamoylphenyl)-2-(2-isopropoxyphenoxy)-5-(trifluoromethyl)benzamide] | 130
3 | NC(=O)c1cccc(NC(=O)c2cc(C(F)(F)F)ccc2Oc2ccccc2Cl)c1 [Compound 283, N-(3-carbamoylphenyl)-2-(2-chlorophenoxy)-5-(trifluoromethyl)benzamide] | 82
4 | Cc1cc(Cl)ccc1Oc1ccc(C(F)(F)F)cc1C(=O)Nc1cccc(C(N)=O)c1 [Compound 284, N-(3-carbamoylphenyl)-2-(4-chloro-2-methylphenoxy)-5-(trifluoromethyl)benzamide] | 43
5 | NC(=O)c1cccc(NC(=O)c2cc(C(F)(F)F)ccc2Oc2ccccc2OC(F)F)c1 [Compound 285, N-(3-carbamoylphenyl)-2-(2-(difluoromethoxy)phenoxy)-5-(trifluoromethyl)benzamide] | 72
6 | COc1cc(Cl)ccc1Oc1ccc(C(F)(F)F)cc1C(=O)Nc1cccc(C(N)=O)c1 [Compound 286, N-(3-carbamoylphenyl)-2-(4-chloro-2-methoxyphenoxy)-5-(trifluoromethyl)benzamide] | 20
7 | COc1ccccc1Oc1ccc(C(F)(F)F)cc1C(=O)Nc1cccc(C(N)=O)c1 [Compound 287, N-(3-carbamoylphenyl)-2-(2-methoxyphenoxy)-5-(trifluoromethyl)benzamide] | 84
8 | COc1cc(F)ccc1Oc1ccc(C(F)(F)F)cc1C(=O)Nc1cccc(C(N)=O)c1 [Compound 288, N-(3-carbamoylphenyl)-2-(4-fluoro-2-methoxyphenoxy)-5-(trifluoromethyl)benzamide] | 34
9 | NC(=O)c1cccc(NC(=O)c2cc(C(F)(F)F)ccc2Oc2ccc(F)cc2Cl)c1 [Compound 289, N-(3-carbamoylphenyl)-2-(2-chloro-4-fluorophenoxy)-5-(trifluoromethyl)benzamide] | 36
10 | Cc1cc(F)ccc1Oc1ccc(C(F)(F)F)cc1C(=O)Nc1cccc(C(N)=O)c1C [Compound 291, N-(3-carbamoyl-2-methylphenyl)-2-(4-fluoro-2-methylphenoxy)-5-(trifluoromethyl)benzamide] | 1400
11 | COc1ccc(NC(=O)c2cc(C(F)(F)F)ccc2Oc2ccc(F)cc2C)cc1C(N)=O [Compound 292, N-(3-carbamoyl-4-methoxyphenyl)-2-(4-fluoro-2-methylphenoxy)-5-(trifluoromethyl)benzamide] | 270
12 | Cc1cc(F)ccc1Oc1ccc(C(F)(F)F)cc1C(=O)Nc1ccc(Cl)c(C(N)=O)c1 [Compound 293, N-(3-carbamoyl-4-chlorophenyl)-2-(4-fluoro-2-methylphenoxy)-5-(trifluoromethyl)benzamide] | 33
13 | Cc1cc(F)ccc1Oc1ccc(C(F)(F)F)cc1C(=O)Nc1ccc(C)c(C(N)=O)c1 [Compound 294, N-(3-carbamoyl-4-methylphenyl)-2-(4-fluoro-2-methylphenoxy)-5-(trifluoromethyl)benzamide] | 37
14 | Cc1cc(F)ccc1Oc1ccc(C(F)(F)F)cc1C(=O)Nc1cccc(C(N)=O)c1 [Compound 296, N-(3-carbamoylphenyl)-2-(4-fluoro-2-methylphenoxy)-5-(trifluoromethyl)benzamide] | 18
15 | Cc1cc(F)ccc1Oc1ccc(C(F)(F)F)cc1C(=O)Nc1ccc(C(N)=O)cc1 [Compound 297] | 40
16 | COc1cc(F)ccc1Oc1cc(C(F)(F)F)ccc1C(=O)Nc1cccc(C(N)=O)c1 [Compound 298, N-(3-Carbamoylphenyl)-2-[4-fluoro-2-(methoxy)phenoxy]-4-(trifluoromethyl)benzamide] | 14
17 | COc1ccc(Oc2cc(C(F)(F)F)ccc2C(=O)Nc2cccc(C(N)=O)c2)c(Cl)c1 [Compound 299, N-(3-carbamoylphenyl)-2-[2-chloro-4-(methoxy)phenoxy]-4-(trifluoromethyl)benzamide] | 130
18 | NC(=O)c1cccc(NC(=O)c2ccc(C(F)(F)F)cc2Oc2ccc(F)cc2)c1 [Compound 300, N-(3-carbamoylphenyl)-2-[4-fluorophenoxy]-4-(trifluoromethyl)benzamide] | 61
19 | COc1ccc(Oc2cc(C(F)(F)F)ccc2C(=O)Nc2cccc(C(N)=O)c2)c(OC)c1 [Compound 301, N-(3-carbamoylphenyl)-2-[2,4-(dimethoxy)phenoxy]-4-(trifluoromethyl)benzamide] | 57
20 | COc1cc(Cl)ccc1Oc1cc(C(F)(F)F)ccc1C(=O)Nc1cccc(C(N)=O)c1 [Compound 302, N-(3-carbamoylphenyl)-2-[4-chloro-2-(methoxy)phenoxy]-4-(trifluoromethyl)benzamide] | 26
